Measured values: paper doi:10.1101/2024.08.25.609621 (bioRxiv, 2024)
Read-outs that look alike come from different tables or passages of the source.

Biological target: SARS-CoV-2 NSP3 macrodomain (Mac1), P43 crystal form (Severe acute respiratory syndrome coronavirus 2, UniProt P0DTD1)
Format: binding
Conditions: for 1-BDC: PanDDA background density correction; for Total number of conformations: ligand conformations modeled in Mac1 crystal structure; for X-ray crystallography: Binding site: site where the ligand is bound in the X-ray crystal structure
[1] = X-ray crystal structure determined (TRUE)
[2] = crystal soak 10 mM, P43 crystals
[3] = crystal soak 10 mM, DMSO background map
[4] = occupancy estimate from PanDDA 1-BDC
[5] = site of ligand in X-ray crystal structure
[6] = crystal soak concentration 10 mM, P43 crystals
[7] = crystal soak concentration 20 mM, DMSO background map
[8] = crystal soak concentration 20 mM, P43 crystals
[9] = crystal soak, soak concentration 10 mM
[10] = crystal soak, soak concentration 10 mM, TRUE = ligand hit
[11] = soak concentration 10 mM, DMSO background map
[12] = soak concentration 10 mM, TFA/DMSO background map
[13] = crystal structure with Mac1 determined (TRUE)
[14] = site of ligand in Mac1 crystal structure

Structure (SMILES)	1-BDC	X-ray crystal structure [1]	Pandda run, overall: Hit [2]	Pandda run, overall: Modeled [2]	PanDDA run, DMSO background map: 1-BDC [3]	PanDDA run, DMSO background map: Hit [3]	Total number of conformations	2*(1-BDC) (%) [4] [%]	Binding site [5]	Pandda run, overall: Hit [10]	PanDDA run, DMSO background map: 1-BDC [11]	PanDDA run, DMSO background map: Hit [11]	Pandda run, overall: Modeled [9]	also measured
CC(C)(C)CC(CO)Nc1ncnc2[nH]ccc12 (stereo not drawn) [AVI-3648]	0.13	TRUE	TRUE	TRUE	0.13	TRUE	1	26	Adenosine					
CNc1ccc(NS(=O)(=O)c2cc3cccc(C)c3s2)cn1 [AVI-345]	0.26						1							Occupancy difference (refined_occupancy - 2*(1-BDC)): 0; Refined ligand occupancy (%): 52%; X-ray crystal structure (TRUE = crystal structure with ligand determined): TRUE; PanDDA run, DMSO background map: 1-BDC (crystal soak concentration 10 mM, DMSO background map, event 1): 0.17; Pandda run, overall: Hit [6]: TRUE; Pandda run, overall: Modeling comment [6]: Duplicate, not modeled; PanDDA run, DMSO background map: Hit (crystal soak concentration 10 mM, DMSO background map): TRUE; PanDDA run, DMSO background map: Hit [7]: TRUE; PanDDA run, DMSO background map: Modeled [7]: TRUE; PanDDA run, DMSO background map: 1-BDC (crystal soak concentration 20 mM, DMSO background map, event 1): 0.26; Pandda run, overall: Hit [8]: TRUE; Pandda run, overall: Modeled [8]: TRUE; 2*(1-BDC) (%) (occupancy estimate from PanDDA BDC): 52%; Binding site (site of Mac1 where ligand bound in crystal structure): Adenosine
Cc1ccc(CC(CO)Nc2ncnc3[nH]ccc23)cc1 (stereo not drawn) [AVI-3683]	0.15	TRUE	TRUE	TRUE	0.15	TRUE	2	30	Adenosine					
OCC(Nc1ncnc2[nH]ccc12)C1CCC1 (stereo not drawn) [AVI-3638]	0.13	TRUE	TRUE	TRUE	0.13	TRUE	1	26	Adenosine					
OCC(CC1OCCO1)Nc1ncnc2[nH]ccc12 (stereo not drawn) [AVI-3658]	0.2	TRUE	TRUE	TRUE	0.2	TRUE	1	40	Adenosine					
O=C(O)C(F)(F)F.OCC1C2C=CC(C2)N1c1ncnc2[nH]ccc12 (stereo not drawn) [AVI-3712]										TRUE	0.15	TRUE		Pandda run, overall: Modeling comment [9]: Weak density, not modeled; PanDDA run, TFA/DMSO background map: 1-BDC [12]: 0.05; PanDDA run, TFA/DMSO background map: Hit [12]: TRUE
Cc1ccc(CC(CO)Nc2ncnc3[nH]ccc23)cc1C (stereo not drawn) [AVI-3684]	0.15	TRUE	TRUE	TRUE	0.15	TRUE	2	30	Adenosine					
OCC(Cc1ccccn1)Nc1ncnc2[nH]ccc12 (stereo not drawn) [AVI-3696]	0.13	TRUE	TRUE	TRUE	0.13	TRUE	2	26	Adenosine					
NC(=O)C1(O)CCN(c2ncnc3[nH]ccc23)C1 (stereo not drawn) [AVI-611]	0.22						2	44		TRUE	0.22	TRUE	TRUE	X-ray crystal structure [13]: TRUE; Binding site [14]: Adenosine
O=C(O)C(F)(F)F.OCC(CC1CCOCC1)Nc1ncnc2[nH]ccc12 (stereo not drawn) [AVI-3676]														Pandda run, overall: Modeling comment [2]: TFA only
OCC1CC2(CCC2)CN1c1ncnc2[nH]ccc12 (stereo not drawn) [AVI-3728]	0.24						2	48		TRUE	0.24	TRUE	TRUE	Pandda run, overall: Modeling comment [9]: Distal site, weak density, not modeled; X-ray crystallography: Binding site: Adenosine
CN(C)C[C@@]1(O)CCCN(c2ncnc3[nH]ccc23)C1 [AVI-614]										TRUE	0.17	TRUE		Pandda run, overall: Modeling comment [9]: Weak density, not modeled
OCC1COCCN1c1ncnc2[nH]ccc12 (stereo not drawn) [AVI-3717]	0.14						2	28		TRUE	0.14	TRUE	TRUE	X-ray crystallography: Binding site: Adenosine
O[C@@H]1CN(c2ncnc3[nH]ccc23)C[C@H]1F [AVI-616]	0.2						1	40		TRUE	0.2	TRUE	TRUE	X-ray crystal structure [13]: TRUE; Binding site [14]: Adenosine
OCC(CC1CCOC1)Nc1ncnc2[nH]ccc12 (stereo not drawn) [AVI-3665]	0.17	TRUE	TRUE	TRUE	0.17	TRUE	1	34	Adenosine					
CC(C)(C)C1CCC(CO)N(c2ncnc3[nH]ccc23)C1 (stereo not drawn) [AVI-3719]	0.08						1	16		TRUE	0.08	TRUE	TRUE	Phe132 loop open state (TRUE = open state of Phe132 loop modeled): TRUE; X-ray crystallography: Binding site: Adenosine
O=C(O)C(F)(F)F.OC[C@H]1CC2(CN1c1ncnc3[nH]ccc13)OCCO2 [AVI-3702]	0.21						1	42		TRUE	0.21	TRUE	TRUE	X-ray crystallography: Binding site: Adenosine
OCC(CC(O)c1ccccc1)Nc1ncnc2[nH]ccc12 (stereo not drawn) [AVI-3642]	0.17	TRUE	TRUE	TRUE	0.17	TRUE	1	34	Adenosine					
CC1(C)CCC(CO)N(c2ncnc3[nH]ccc23)C1 (stereo not drawn) [AVI-3726]	0.17						3	34		TRUE	0.17	TRUE	TRUE	X-ray crystallography: Binding site: Adenosine
